Assay results taken from patent publication US9365540B2, “Benzimidazole derivatives as MCH receptor antagonists” (Takeda Pharmaceutical Company Limited, priority 2012, dated 2016).

Experiments:
[1] = biological target: T1, human MCHR1 (Homo sapiens, UniProt Q99705); test: MCH receptor 1 antagonistic activity, Ca2+ mobilization assay; type: cell-based; conditions: CHO, test compound 0.1 μM; human MCHR1-expressing CHO cells (clone #4); ligand MCH(4-19) 2 nM; read-out: Inhibitory rate % (0.1 μM)
T1 construct: expressed in transfected cells; host or cells: CHO dhfr- cells, clone #4
Method in brief: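 CHO dhfr− cells stably expressing human MCHR1 (clone #4) were used in a fluorometric Ca2+ mobilization assay. Test compounds were run at 0.1 μM, with antagonism expressed as percent inhibition.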

[2] = system: HepG2 cells; test: PLsis (phospholipidosis) inducing potential, NBD-PE uptake; type: cell-based; conditions: 24 hr exposure, relative value to 10 μM Amiodarone, maximum value per unit concentration
Procedure: Evaluation of PLsis Inducing Potential
DMEM medium, L-glutamine, penicillin-streptomycin, pyruvic acid, and N-(7-nitrobenz-2-oxa-1,3-diazol-4-yl)-1,2-hexadecanoyl-sn-glycero-3-phosphoethanolamine triethylammonium salt (NBD-PE) were purchased from Invitrogen Corporation. As bovine serum albumin (BSA), a product of Thermo Trace Ltd. (Melbourne, Australia) was used, and as Amiodarone, a product of ICN (Costa Mesa, Calif.) was used. A test compound was used in the form of a 10 mM DMSO solution.
FBS was added at a final concentration of 5 vol % to DMEM medium supplemented with L-glutamine, pyruvic acid and penicillin-streptomycin and subjected to the experiment. Culture was performed using 5% carbon dioxide gas-95% air as a gas phase in a CO2 incubator at 37° C. HepG2 cells were suspended in a culture medium at 50×10^4 cells/mL, plated in a 96 well plate at 50 μL/well and precultured for 24 hr. After preculture, the culture medium was removed, a culture medium containing 60 μM NBD-PE was added at 50 μL/well, and a culture medium containing 0.6 μM or 20 μM test compounds were each added at 50 μL/well to HepG2 cells, and the cells were cultured for 24 hr. As a positive control, Amiodarone was used at a final concentration of 10 μM.
After exposure to the test compound for 24 hr, the fluorescence intensity (Ex. 485 nm, Em. 538 nm) of NBD-PE uptaken by the cells was measured by a fluorometer. The measurement value with addition of 0 μM test compound solution was subtracted as a blank, a relative value to the measurement 5 value with addition of 10 μM Amiodarone was calculated, and the maximum value per unit concentration of the test compound was obtained as a phospholipidosis (PLsis) inducing potential.

T1 sequence (Q99705 whole entry): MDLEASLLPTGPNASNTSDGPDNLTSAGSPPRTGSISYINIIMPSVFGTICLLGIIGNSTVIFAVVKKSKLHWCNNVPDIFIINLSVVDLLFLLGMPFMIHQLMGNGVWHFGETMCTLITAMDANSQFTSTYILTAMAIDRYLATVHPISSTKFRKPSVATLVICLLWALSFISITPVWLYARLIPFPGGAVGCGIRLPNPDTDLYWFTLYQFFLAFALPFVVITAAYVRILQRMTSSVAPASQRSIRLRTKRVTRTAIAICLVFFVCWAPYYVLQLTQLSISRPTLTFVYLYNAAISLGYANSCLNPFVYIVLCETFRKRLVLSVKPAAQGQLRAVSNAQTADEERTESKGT

## Cn1c(C2CC2)nc2ccc(-n3ccc(OCc4ccc(F)cc4)cc3=O)cc21 [Example 2, 1-(2-Cyclopropyl-1-methyl-1H-benzimidazol-6-yl)-4-((4-fluorobenzyl)oxy)pyridin-2(1H)-one]
[1]
  inhibition at 0.1 µM: 99%
[2]
  PLsis inducing potential: 2.2

## CCc1nc2ccc(-n3ccc(OCc4ccc(F)cc4)cc3=O)cc2n1C [Example 63, 1-(2-Ethyl-1-methyl-1H-benzimidazol-6-yl)-4-((4-fluorobenzyl)oxy)pyridin-2(1H)-one]
[1]
  inhibition at 0.1 µM: 100%
[2]
  PLsis inducing potential: 1.6

## Cc1nc2ccc(-n3ccc(OCc4ccc(F)cc4)cc3=O)cc2n1C [Example 254, 1-(1,2-Dimethyl-1H-benzimidazol-6-yl)-4-((4-fluorobenzyl)oxy)pyridin-2(1H)-one]
[1]
  inhibition at 0.1 µM: 95%
[2]
  PLsis inducing potential: 1.7
